Experimental data from patent US9606124B2, “Methods of detecting and treating stem-cell containing solid tumors” (The Regents of The University of Michigan, priority 2008, dated 2017).
“Also recorded” adds a separate entry of the source.

What was measured:
[1] = system: ALDEFLUOR-positive population of HCC1954; experiment: ALDEFLUOR assay on HCC1954 cells in vitro; format: cell-based, human; details: three days, repertaxin 100 nM, antibodies 10 μg/ml
Procedure: (§1) ALDEFLUOR assay. […] In order to eliminate cells of mouse origin from the xenotransplanted tumors, cell population was stained with an anti-H2Kd antibody (BD biosciences, 1/200, 20 min on ice) followed by staining with a secondary antibody labeled with phycoerythrin (PE) (Jackson labs, 1/250, 20 min on ice).

[2] = system: ALDEFLUOR-positive population of MDA-MB-453; experiment: ALDEFLUOR assay on MDA-MB-453 cells in vitro; format: cell-based, human; details: three days, repertaxin 100 nM, antibodies 10 μg/ml
Procedure: as §1

SUM159 cells [3] = experiment: TUNEL assay, apoptotic cells; format: cell-based, human; details: 4 days of treatment
Description: (§2) Cell viability. […] After one day, treatment with repertaxin was started. […]. […] Nuclei were counterstained with DAPI/antifade (Invitrogen).

[4] = system: CXCR1-positive, CXCR1-negative and unsorted populations of SUM159 cells; experiment: MTT assay on flow sorted CXCR1-positive, CXCR1-negative and unsorted populations; format: cell-based, human; details: for cell viability of the unsorted / unseparated population: SUM159 cells
Procedure: Cell viability. […] Nuclei were counterstained with DAPI/antifade (Invitrogen).
Flow cytometry analysis. […] CD95/FAS staining were performed utilizing an anti-CD95 labeled APC (1:20, BD biosciences). […] Fresh cells were stained with 1 μg/ml PI (Sigma) for 5 min for viability.

[5] = system: normal mammary epithelial cells from reduction mammoplasties; experiment: MTT assay on normal mammary epithelial cells; format: cell-based, human; details: adherent; five days; repertaxin 100 nM or 500 nM, FAS agonist 500 ng/ml
Procedure: Dissociation of mammary tissue. 100-200 g of normal breast tissue from reduction mammoplasties was minced with scalpels, dissociated enzymatically, and single cells were cultured in suspension to generate mammospheres or on a collagen substratum in adherent condition to induce cellular differentiation (Dontu et al. Genes Dev. 17:1253-1270, herein incorporated by reference in its entirety).
as §2

[6] = system: FAK Tyr397 and AKT Ser473 phosphorylation; experiment: Western blotting of FAK/AKT activation in SUM159; format: cell-based, human; details: 100 nM, two days
Procedure: Western blotting. Cells were lysed in a laemmli buffer and loaded onto SDS-polyacrylamide gels. Blots were incubated with the respective primary antibodies diluted in TBST (containing 0.1% Tween20 and 2% BSA) either overnight at 4o, or 2 hours at room temperature. Blots were washed and incubated with appropriate secondary antibodies (GE Healthcare, UK) and detected using SuperSignal West Pico Chemiluminescent Substrate (Pierce).

[7] = system: cells from primary tumors SUM159, MC1, UM2, UM3; experiment: Re-implantation of cells from treated tumors into secondary mice; format: in vivo, NOD/SCID mice; details: for secondary tumor formation / regrowth from serial dilutions of treated primary tumors: secondary NOD/SCID mice, no further treatment
Procedure: Animal model. […] Cells from these tumors were transplanted orthotopically in the humanized cleared fat-pad of NOD/SCID mice, without cultivation in vitro. […] 50,000 cells from each xenotransplants were injected in the humanized fat pad of NOD/SCID mice and monitored the tumor growth. […] The animals were euthanized when the tumors were approximately 1.5 cm in the largest diameter, to avoid tumor necrosis and in compliance with regulations for use of vertebrate animal in research. A portion of each fat pad injected was fixed in formalin and embedded in paraffin for histological analysis. The rest of the tumor cells were re-implantated into secondary NOD/SCID mice. […]

phospho-AKT = experiment: Immunohistochemistry of phospho-AKT in xenotransplants; set-up: species or system NOD/SCID mice; details: mouse, in vivo
Procedure: (§3) Immunostaining. For immunofluorescent staining, sorted CXCR1-positive cells were fixed with 95% methanol at −20° C. for 10 minutes. Cells were rehydrated in PBS and incubated with respective antibodies at room temperature for 1 hour. Primary antibodies used were P-FAK (1:50, Cell Signaling Technology), P-AKT (1:300, Cell Signaling Technology), and FOXO3a (1:250, Cell Signaling Technology). Slides were then washed and incubated 30 minutes with PE conjugated secondary antibodies (Jackson labs). The nuclei were counterstained with DAPI/antifade (Invitrogen) and coverslipped. […] Immunohistochemistry for the detection of ALDH1 (1:100, BD biosciences), P-FAK, P-AKT, FOXO3a expression was done on paraffin section (Ginestier et al. Am. J Pathol. 161:1223-1233, herein incorporated by reference in its entirety). Staining was done utilizing the Histostainplus kit (Zymed laboratories). Diaminobenzidine (DAB) or 3-amino-9-ethylcarbazole (AEC) was used as chromogen and sections were counterstained with hematoxylin.

FOXO3A = experiment: Immunohistochemistry of FOXO3A in xenotransplants; set-up: species or system NOD/SCID mice; details: mouse, in vivo
Procedure: as §3

SUM159 cells [8] = experiment: Metastasis formation after intracardiac injection of SUM159 cells (bioluminescence); format: in vivo, NOD/SCID mice; details: 250,000 cells intracardiac, repertaxin 15 mg/kg s.c. twice a day 28 days vs saline
Procedure: A SUM159 cell line was infected with a lentivirus expressing luciferase and inoculated 250,000 luciferase infected cells in the heart of NOD/SCID mice. The mice were organized into two groups.
Intracardiac inoculation. Six weeks-old NOD/SCID mice were anesthetized with 2% isofluorane/air mixture and injected in the heart left ventricle with 250,000 cells in 100 μL of sterile Dulbecco's PBS lacking Ca2+ and Mg2+. […] Twelve hours after intracardiac injections, mice were begun on twice per day repertaxin injections or saline for the controls.
Bioluminescence detection. Baseline bioluminescence was assessed before inoculation and each week thereafter inoculations. Bioluminescence detection procedures was performed as previously described (Charafe-Jauffret et al. Cancer Res. 69:1302-1313, herein incorporated by reference in its entirety). Normalized photon flux represents the ratio of the photon flux detected each week after inoculations and the photon flux detected before inoculation.

MDA-MB-453 cells = experiment: Metastasis formation after intracardiac injection of MDA-MB-453 cells (bioluminescence); format: in vivo, NOD/SCID mice; details: 250,000 cells intracardiac, repertaxin 15 mg/kg s.c. twice a day 28 days vs saline
Procedure: Intracardiac inoculation. […] Twelve hours after intracardiac injections, mice were begun on twice per day repertaxin injections or saline for the controls. Bioluminescence detection. Baseline bioluminescence was assessed before inoculation and each week thereafter inoculations. Bioluminescence detection procedures was performed as previously described ([…] et al. Cancer Res. 69:1302-1313, herein incorporated by reference in its entirety). Normalized photon flux represents the ratio of the photon flux detected each week after inoculations and the photon flux detected before inoculation.

## CC(C)Cc1ccc([C@@H](C)C(=O)NS(C)(=O)=O)cc1 [Repertaxin]
[1]
  ALDEFLUOR-positive population: significant reduction
[2]
  ALDEFLUOR-positive population: np any effect
SUM159 cells [3]
  apoptotic cells (TUNEL): 36%
[4]
  cell viability of the unsorted / unseparated population: massive cell death
[4]; listed as repertaxin
  cell viability of the unsorted / unseparated population: decrease in cell viability
[4]; sorted SUM159 cells
  cell viability of the CXCR1-negative population: no effect
  cell viability of the CXCR1-positive population: decreased cell viability
[4]; sorted SUM159 cells, listed as repertaxin
  cell viability of the CXCR1-positive population: decrease in cell viability
[5]
  viability of normal mammary epithelial cells (MTT): no effect
[6]
  FAK Tyr397 and AKT Ser473 phosphorylation (western blot): decrease in FAK Tyr397 and AKT Ser473 phosphorylation
[6]; listed as repertaxin
  FAK Tyr397 and AKT Ser473 phosphorylation (western blot): decrease in FAK Tyr^397 and AKT Ser^473 phosphorylation
[7]; equal numbers of cells injected
  reduction in tumor growth in secondary mice compared to cells from control or docetaxel-treated animals: 2-5 fold
[7]; number of cells injected 100
  Tumors/Injections: 0/9
[7]; number of cells injected 250
  Tumors/Injections: 0/2
[7]; number of cells injected 500
  Tumors/Injections: 1/3
[7]; number of cells injected 1,000
  Tumors/Injections: 4/8
[7]; number of cells injected 2,500
  Tumors/Injections: 2/2
[7]; number of cells injected 5,000
  Tumors/Injections: 2/2
[7]; number of cells injected 10,000
  Tumors/Injections: 4/4
[7]
  secondary tumor formation / regrowth from serial dilutions of treated primary tumors: reduced tumor growth in secondary recipients; also recorded: only higher numbers of cells
[7]; listed as Reperatxin
  secondary tumor formation / regrowth from serial dilutions of treated primary tumors: delayed secondary tumors which were significantly smaller in size
phospho-AKT
  cells expressing phospho-AKT in treated tumors: complete inhibition; also recorded: no expression was detected
FOXO3A
  nuclear FOXO3A in treated tumors: detected
SUM159 cells [8]
  metastasis formation (normalized photon flux): statistically significant increase of metastasis formation in the group of mice treated with saline solution; also recorded: significantly reduced metastasis formation; also recorded: reduces the metastatic potential
SUM159 cells [8]; listed as repertaxin
  metastasis formation (normalized photon flux): statistically significant decrease in metastasis formation
MDA-MB-453 cells
  metastasis formation (normalized photon flux): did not have any effect on metastasis formation
